Experiments:
[1] = molecular target: T1, Rat androgen receptors (rat AR) (Rattus norvegicus, UniProt P15207); assay: Test for competitive binding to rat androgen receptors; conditions: 3H-testosterone, rat prostate AR fraction; hydroxyflutamide taken as 100
T1 construct: from tissue; host or cells: prostate of orchiectomized male SD rats (100,000 x g supernatant)
T1 sequence (P15207 1-902): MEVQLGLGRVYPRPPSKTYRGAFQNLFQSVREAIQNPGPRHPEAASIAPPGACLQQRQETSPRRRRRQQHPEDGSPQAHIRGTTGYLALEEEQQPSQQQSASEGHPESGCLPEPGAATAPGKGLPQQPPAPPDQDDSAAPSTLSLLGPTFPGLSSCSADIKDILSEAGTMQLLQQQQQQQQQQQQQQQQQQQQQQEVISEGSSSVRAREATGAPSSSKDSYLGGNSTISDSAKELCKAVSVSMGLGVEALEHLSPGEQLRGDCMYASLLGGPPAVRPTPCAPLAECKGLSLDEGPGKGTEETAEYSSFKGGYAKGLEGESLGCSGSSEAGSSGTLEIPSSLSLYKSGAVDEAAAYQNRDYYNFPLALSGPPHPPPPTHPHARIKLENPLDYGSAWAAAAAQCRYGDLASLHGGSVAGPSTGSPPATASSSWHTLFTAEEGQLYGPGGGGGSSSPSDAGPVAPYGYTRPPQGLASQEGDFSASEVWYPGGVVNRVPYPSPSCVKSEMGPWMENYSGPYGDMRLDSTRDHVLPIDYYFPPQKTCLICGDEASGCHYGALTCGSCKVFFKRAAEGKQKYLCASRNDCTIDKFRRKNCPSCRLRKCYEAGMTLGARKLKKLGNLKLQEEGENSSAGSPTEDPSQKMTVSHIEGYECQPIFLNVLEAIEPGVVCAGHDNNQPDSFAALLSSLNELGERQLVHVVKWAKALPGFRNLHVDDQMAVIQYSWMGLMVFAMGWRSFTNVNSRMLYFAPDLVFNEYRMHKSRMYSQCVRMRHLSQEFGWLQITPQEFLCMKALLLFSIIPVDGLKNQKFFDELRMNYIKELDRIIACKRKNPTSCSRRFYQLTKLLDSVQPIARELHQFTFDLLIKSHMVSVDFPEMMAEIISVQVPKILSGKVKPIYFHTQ
Method: Test for Competitive Binding to Rat Androgen Receptors (Rat AR)
Preparation of rat AR fraction: Prostates were harvested into ice-cooled ET buffer (10 mM Tris, 1 mM EDTA, 5 mM DTT, 10 mM sodium molybdate, pH 7.4) 3 days after orchiectomy in 11-week-old male SD rats. The prostate was finely cut, and ET buffer was added, whereafter the mixture was homogenized using a homogenizer. The homogenate was ultracentrifuged (100,000×g, 60 min, 4° C.), and the supernatant was used as a rat AR fraction (hereinafter referred to as ARF).
Binding test: ^3H-testosterone (hereinafter referred to as ^3H-T) was diluted with ET buffer. Dihydrotestosterone (DHT) was prepared so as to have a concentration (final concentration 1 μM) 400 times the maximum concentration of ^3H-T (2.5 nM). The ^3H-T solution was added to a 1.5 ml tube containing DHT, no DHT, or the test compound with a varying concentration. Further, 200 μg ARF was added to adjust the final volume to 100 μl. The mixture was incubated for 2 hours at 4° C., and then 300 μl of a 0.05% dextran T70-1.0% activated carbon solution was added. The mixture was further incubated for 15 minutes in ice to remove the free ^3H-T. After centrifugation (4° C., 2,500 rpm, 5 min), 275 μl of the supernatant was harvested into a liquid scintillation vial, and 2 ml of clear-sol was added. The mixture was stirred, allowed to stand, and measured for ^3H radioactivity with a liquid scintillation counter.
Calculation of the relative binding inhibition rate: The binding inhibition rate (%) of the compound according to the present invention was calculated from the following equation, and the 50% inhibition concentration (IC50) was calculated by the probit analysis of the concentration-binding inhibition curve.
The relative binding inhibition rate (RBA: Relative Binding Affinity) was obtained from the following equation (Endocrinology 138, 863-870, 1997): RBA=100×(IC50 of hydroxyflutamide)/(IC50 of the compound of the present invention) • RBA's of the compounds of the present invention, calculated as above, are shown in Table 10.

[2] = system: orchiectomized (ORX) rats; assay: Action of increasing prostate weight in orchiectomized (ORX) rats (Test Example 3); type: in vivo, rat; conditions: 30 mg/kg s.c. once daily for 8 days, ORX SD rats, Mean ± SD
Method: Action of Increasing Prostate Weight in Rats After Orchiectomized (ORX) Rats
Orchiectomy was performed in 8-week-old male SD rats. From 5 days postoperation, the compound of the present invention (Example 60, 30 mg/kg), dissolved in a 5% dimethyl sulfoxide-containing olive oil solution, was subcutaneously injected once daily for 8 days. On the next day after final administration, the wet weight of the ventral prostate was measured to evaluate the AR agonistic effect of the compound of the present invention.

[3] = system: orchiectomized (ORX) rats; assay: Action of increasing prostate weight and bone mineral density in orchiectomized (ORX) rats (Test Example 4); type: in vivo, rat; conditions: 60 mg/kg s.c. once daily, 5 days weekly, 4 weeks, ORX SD rats, Mean ± SD; for Bone mineral density: right femur
Method: Action of Increasing Prostate Weight and Bone Mineral Density in Orchiectomized (ORX) Rats
Orchiectomy was performed in 12-week-old male SD rats. From the next day postoperation, the positive control compound dihydrotestosterone (DHT, 10 mg/kg) and the compound of the present invention (Example 60, 60 mg/kg), each dissolved in a 5% dimethyl sulfoxide-containing olive oil solution, were subcutaneously injected once daily, 5 days weekly, for 4 weeks. On the next day after final administration, the wet weight of the ventral prostate was measured to evaluate the AR agonistic effect of the compound of the present invention. On the next day following final administration, moreover, the right femur was removed, and fixed overnight in a 10% neutrally buffered formalin solution. Then, the bone mineral density at the site ranging from the diaphysis to the proximal end was measured by the method of double energy X-ray absorption using a bone mineral content-measuring machine (Aloka, DCS-600) to evaluate increasing action of bone mineral density of the compound of the present invention.

[4] = system: AR; assay: Assignment of compounds as having AR agonistic or AR antagonistic action (description, no method given); conditions: compounds named as usable for category A diseases
[5] = system: orchiectomized rats; assay: Inhibitory action on testosterone-induced prostate weight increase in orchiectomized rats (Test Example 5); type: in vivo, rat; conditions: TP 1 mg/kg s.c. alone, once daily for one week, orchiectomized SD rats, Mean ± SD
Method: Inhibitory Action on Testosterone-induced Prostate Weight Increase in Orchiectomized Rats
Testes were removed from 8-week-old male SD rats. From 5 days postoperation, 1 mg/kg of testosterone propionate (hereinafter referred to as TP) and 30 mg/kg of the compound of the present invention were simultaneously injected once daily for one consecutive week. The compound of the present invention was suspended in a 0.5% methyl cellulose solution, while TP was dissolved in cottonseed oil containing 5% ethanol. Each of the test compounds was subcutaneously administered. On the next day after final administration, the wet weight of the ventral prostate was measured to evaluate the AR antagonistic effect of the compound of the present invention on TP-induced prostate weight increase.

| Compound | RBA (Relative Binding Affinity = 100 x IC50 of hydroxyflutamide / IC50 of the compound) [1] | Weight of prostate [2] | Prostate weight [3] | Prostate weight ([3]; listed as Ex. 60) [mg/body weight 100 g] | Bone mineral density ([3]; 60 mg/kg) | Bone mineral density ([3]; listed as Ex. 60, 60 mg/kg) [mg/cm^2] | AR agonistic action [4] | Prostate weight [5] [mg/body weight 100 g] |
| --- | --- | --- | --- | --- | --- | --- | --- | --- |
| CCS(=O)(=O)NCC(C)(C)C1Nc2ccc([N+](=O)[O-])cc2C2C=CCC21 (centres unmarked) [Example 60] | 814 | significantly increased the prostate weights | significant increases in the prostate weights | 56 ± 13 | significantly increased the bone mineral density | 132 ± 7 | AR agonistic action |  |
| CCC(=O)O[C@H]1CC[C@H]2[C@@H]3CCC4=CC(=O)CC[C@]4(C)[C@H]3CC[C@]12C [TP, testosterone propionate] |  |  |  |  |  |  |  | 80.4 ± 13.7 |
